Results: article PMC7092840 (Biochemical Pharmacology, 2011)
Where two headings read alike, the source gives them in different places. Marks after values point to notes of the source that are not given here.

Tests used:
[1] = system: K562 cells; assay: Exosome release; details: 10 μM, 16 h, N = 7, change not significant
[2] = system: blood monocytes; assay: Transferrin recycling; format: cell-based; details: human monocytes, 10 μM
[3] = system: feline immunodeficiency virus (FIV) VLP budding from 293T cells; format: cell-based
[4] = system: Vero cells; format: cell-based
[5] = system: BHK cells; assay: Cell cholesterol content; details: 10 μM, 16 h, p = 0.03, N = 5
[6] = system: HIV-1 VLP budding from 293T cells; format: cell-based, human immunodeficiency virus type 1
[7] = system: early endosomes from BHK cells
[8] = system: BHK cells; assay: Distribution of LBPA-positive structures, confocal morphometry; format: cell-based; details: 16 h; for LBPA-positive structures Diameter / LBPA-positive structures N°/cell profile: BHK cells, 10 μM analogue, M ± SE; for LBPA-positive structures Diameter: control 1.46 ± 0.02; for LBPA-positive structures N°/cell profile: control 28.6 ± 1.1
[9] = Aqueous solubility of hydrochloride salt; format: physicochemical; details: for Aqueous solubility of hydrochloride salt At pH 5.0 / Aqueous solubility of hydrochloride salt At pH 7.4 / solubility: 22 °C; for Aqueous solubility of hydrochloride salt At pH 5.0: 5 mM K2PO4 adjusted to pH 5.0, methanol as cosolvent; for Aqueous solubility of hydrochloride salt At pH 7.4: 5 mM K2PO4 adjusted to pH 7.4, methanol as cosolvent; for pKa × solubility in water at pH 5.0: product of calculated pKa and solubility at pH 5.0; for solubility: phosphate buffer
[10] = system: BHK cells; assay: Cell viability / tolerated concentration; format: cell-based
[11] = ref [27]; cited from earlier work
[12] = ref http://www.patentstorm.us/patents/6939865/description.html; cited from earlier work
[13] = 10 μM, 5 independent experiments, p < 0.01

| Compound | LBPA-positive structures Diameter [8] | LBPA-positive structures N°/cell profile [8] | Aqueous solubility of hydrochloride salt At pH 5.0 [9] | Aqueous solubility of hydrochloride salt At pH 7.4 [9] | pKa × solubility in water at pH 5.0 [9] | other results |
| --- | --- | --- | --- | --- | --- | --- |
| CCCCc1oc2ccccc2c1C(=O)c1cc(I)c(OCCN(CC)CC)c(I)c1 [AMI, Amiodarone] | 2.01 ± 0.03 μm | 5.2 ± 0.4 |  |  |  | decrease in secreted acetylcholinesterase with respect to control cells [1]: 12.0 ± 8.7%; effect on transferrin recycling [2]: no effect; release of mature VLPs (FIV) [3]: did not inhibit the release of mature VLPs; effect on activity of Shiga toxin [4]: not decreased; increase in cell cholesterol [5]: 17.3 ± 5.2%; release of mature VLPs (HIV-1) [6]: did not inhibit the release of mature VLPs; change in endosome-associated fluorescence [7]: no change; decrease in number of LBPA-rich structures per cell profile [8, 13]: 69.0 ± 4.5%; increase in diameter of LBPA-rich structures [8, 13]: 42.6 ± 5.2% |
| CCCCc1oc2ccccc2c1C(=O)c1cc(I)c(OCCN(C(C)C)C(C)C)c(I)c1.Cl [DIPAM, (2-butyl-benzofuran-3-yl)-4-[2-(diisopropylamino)ethoxy]-3,5-diiodophenyl-methanone·hydrochloride] | 1.64 ± 0.04 μm | 24.6 ± 3.0 | 0.23 ^b μM | 0.014 ^b μM | 2.07 |  |
| CCCCc1oc2ccc(NS(C)(=O)=O)cc2c1C(=O)c1ccc(OCCCN(CCCC)CCCC)cc1 [DRO, Dronedarone] |  |  |  |  |  | highest concentration tolerated by transfected cells ([10]; BHK cells transiently transfected with pEGFP-LC3, 16 h): 2 µM; concentration toxic to cells ([10]; BHK cells, 16 h): > 5 µM; serum levels, times lower than in patients treated with amiodarone [11]: over 10 times; Aqueous solubility of hydrochloride salt At pH 7.4 [12]: <0.001 ^c μM |
| CCCCc1oc2ccccc2c1C(=O)c1cc(I)c(OCCNCC)c(I)c1 [MDEA, 2-n-butyl-3-(3,5-diiodo-4-ethylaminoethoxybenzoyl)-benzofuran, reference compound] |  |  |  |  |  | solubility ([9]; pH 5): 12 µM; solubility ([9]; pH 7.4): 0.11 µM |
| CCCCc1oc2ccccc2c1C(=O)c1cc(I)c(OCCN2CCOCC2)c(I)c1 [MOPAM, 2-n-butyl-3-(3,5-diiodo-4-β-Nmorpholinoethoxybenzoyl)benzofuran] | 1.45 ± 0.02 μm | 29.3 ± 0.6 | 0.17 ^b μM | 0.015 ^b μM | 0.55 |  |
| CCCCc1oc2ccccc2c1C(=O)c1cc(I)c(OCCN(C)C)c(I)c1 [MeAMI, (2-butyl-benzofuran-3-yl)-4-[2-(dimethylamino-ethoxy)-3,5-diiodophenyl]methanone] | 2.45 ± 0.08 μm | 4.5 ± 0.6 | 2.21 ^b μM | 0.051 ^b μM | 17.50 |  |
| CCCCc1oc2ccccc2c1C(=O)c1cc(I)c(OCCN2CCCCC2)c(I)c1.Cl [PIPAM, 4-(2-butyl-benzofuran-3-yl)-[3,5-diiodophenyl-4-(2-piperidinoethoxy)phenyl] methanone·hydrochloride] | 1.73 ± 0.03 μm | 14.7 ± 2.1 | 2.22 ^b μM | 0.023 ^b μM | 11.88 |  |
| CCCCc1oc2ccccc2c1C(=O)c1cc(I)c(OCCN2CCCC2)c(I)c1.Cl [PYRAM, 4-(2-butyl-benzofuran-3-yl)-[3,5-diiodophenyl-4-(2-pyrrolidin-1-yl-ethoxy)phenyl]-methanone·hydrochloride] | 2.08 ± 0.05 μm | 7.6 ± 0.6 | 1.86 ^b μM | 0.049 ^b μM | 9.22 |  |
